Data published in ChEMBL document CHEMBL1159165, “Novel, selective mechanism-based inhibitors of the herpes proteases” (Bioorg Med Chem Lett, 1996).

Key:
[1] = Compound was evaluated for inhibitory activity against elastase at dose of 100 uM
[2] = biological target: Serine protease 1 (Homo sapiens) (UniProt P07477); assay: Compound was evaluated for inhibitory activity against trypsin at dose of 100 uM
[3] = Compound was evaluated for inhibitory activity against herpes simplex type 2 protease (HSV-2 pr) at dose of 10 uM; settings: Human alphaherpesvirus 2
Human betaherpesvirus 5 [4] = assay: Compound was evaluated for inhibitory activity against human cytomegalovirus (HCMV) protease.; format: functional
Human betaherpesvirus 5 [5] = assay: Compound was evaluated for inhibitory activity against human cytomegalovirus (HCMV) protease at dose of 10 uM; format: functional
[6] = Compound was evaluated for inhibitory activity against Chymotrypsinogen at dose of 22 uM
Human betaherpesvirus 5 [7] = assay: Compound was evaluated for inhibitory activity against human cytomegalovirus (HCMV) protease 10 uM; format: functional
[8] = Compound was evaluated for inhibitory activity against Chymotrypsinogen at dose of 100 uM

Serine protease 1 (Homo sapiens), sequence (P07477 whole entry): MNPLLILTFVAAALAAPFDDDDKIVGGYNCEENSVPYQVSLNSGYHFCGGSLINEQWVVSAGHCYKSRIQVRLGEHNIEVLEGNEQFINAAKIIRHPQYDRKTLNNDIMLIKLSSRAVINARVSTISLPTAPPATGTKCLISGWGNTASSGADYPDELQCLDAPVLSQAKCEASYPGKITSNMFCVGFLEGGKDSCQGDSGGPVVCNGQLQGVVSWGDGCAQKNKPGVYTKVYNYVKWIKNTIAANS

inhibition [1] [%] | inhibition [3] [%] | IC50 (Human betaherpesvirus 5 [4]) [nM] | SMILES | further results
82 |  |  | CC1=N[C@@]2(C[C@@H]2c2ccccc2)C(=O)O1 | inhibition [2]: 88%
 | 20 | 2300 | COc1ccc(S(=O)(=O)ON2C(=O)/C(=C/c3ccccc3)N=C2c2ccccc2)cc1 | 
42 |  | 1800 | O=C1OC(c2ccccc2)=N[C@@]12C[C@@H]2c1ccccc1 | inhibition [6]: 92%; inhibition [2]: 63%
 | 24 |  | O=C1OC(c2ccccc2)=N[C@@]12C[C@H]2c1ccccc1 | inhibition at 10 µM (Human betaherpesvirus 5 [5]): 85%
 | 71 |  | O=C1OC(c2ccccc2)=NC12CC2 | Inhibition (Human betaherpesvirus 5 [7]): 16%
 | 14 |  | CC(=O)ON1C(=O)/C(=C/c2ccccc2)N=C1c1ccccc1 | inhibition at 10 µM (Human betaherpesvirus 5 [5]): 35%
 |  | 1100 | CC(=O)Oc1ccc([C@H]2C[C@@]23N=C(c2ccccc2)OC3=O)cc1 | 
33 |  | 400 | CS(=O)(=O)ON1C(=O)/C(=C/c2ccccc2)N=C1c1ccccc1 | 
35 |  | 200 | COc1ccc([C@H]2C[C@@]23N=C(c2ccccc2)OC3=O)cc1 | inhibition [2]: 64%; inhibition [8]: 92%
 |  | 160 | CC(=O)n1cc([C@H]2C[C@@]23N=C(c2ccccc2)OC3=O)c2ccccc21 | 

SMILES | inhibition [1] [%] | inhibition [3] [%] | IC50 (Human betaherpesvirus 5 [4]) [nM] | further results
CCOP(=O)(OCC)ON1C(=O)/C(=C/c2ccccc2)N=C1c1ccccc1 |  | 5 |  | inhibition at 10 µM (Human betaherpesvirus 5 [5]): 20%
